Laboratory results: PMC6105827, “Antitrypanosomal 8-Hydroxy-Naphthyridines Are Chelators of Divalent Transition Metals” (Antimicrobial Agents and Chemotherapy, 2018)
Read-outs that look alike come from different tables or passages of the source.

Assays:
[1] = system: T. brucei bloodstream forms; experiment: microbe, parasite or virus in culture
Protocol: (§1) The clonal Leishmania donovani cell line LdBOB (derived from MHOM/SD/62/1S-CL2D) was grown as promastigotes at 28°C, as described previously ([53]). Bloodstream-form T. brucei MiTat 1.2 clone 221a and its derived subline, 2T1, were cultured at 37°C in the presence of 5% CO2 in HMI9-T medium, as described previously ([54]). The human carcinoma HepG2 cell line was grown at 37°C with 5% CO2 in minimal Eagle's medium (MEM) with GlutaMAX (1×; Sigma-Aldrich), nonessential amino acids (Sigma-Aldrich), and 10% FBS. Human HepG2 and THP-1 cells used in this study were ethically sourced from the ATCC.
(§2) L. donovani intramacrophage ([7]), HepG2 ([55]), T. brucei ([56]), and L. donovani promastigote ([57]) compound sensitivity assays were carried out as described previously. Human HepG2 and THP-1 cells used in these assays were provided by the ATCC. Data were processed by using GRAFIT (version 5.0.4; Erithacus Software) and fitted to a 2-parameter equation to obtain the effective concentration inhibiting growth by 50% (EC50). Data are presented as the means of results from at least two independent experiments.
(§3) In the first instance, the maximum tolerated concentrations of ZnCl2, CaCl2, CuCl2, MgCl2, MnCl2, and FeCl2 were determined for each cell type. […] Standard drug sensitivity assays were carried out (as described above) for each cell type with compounds 1, 2, and 3 in the presence and absence of the maximum tolerated concentration of metal salt.

[2] = system: L. donovani promastigotes; experiment: Generation of an 8-HNT-resistant L. donovani cell line; assay type: cell-based, Leishmania donovani
Protocol: Resistant lines were generated as described previously ([31]), using compound 2 in L. donovani promastigotes. Starting at a sublethal concentration of 1 μM compound 2 in 3 independent cultures, concentrations were increased in a stepwise manner. However, after a total of 270 days in culture, promastigotes were unable to grow in ≥10 μM compound 2.

[3] = system: L. donovani intramacrophage amastigotes; experiment: L. donovani intramacrophage compound sensitivity assay; assay type: cell-based; details: Leishmania donovani; L. donovani intramacrophage amastigotes; ≥3 independent replicates; read-out: Intra-macrophage EC50
Protocol: as §2

[4] = system: THP-1 cells; experiment: THP-1 cell sensitivity; assay type: cell-based; details: Homo sapiens
Protocol: as §2

[5] = system: L. donovani promastigotes; experiment: L. donovani promastigote compound sensitivity assay (with/without metal salts); details: for EC50: Leishmania donovani; for Shift: promastigotes; for Tolerated concentration of exogenous metal salt: L. donovani promastigotes
Protocol: as §1, §2, §3

[6] = system: HepG2 cells; experiment: HepG2 compound sensitivity assay (with/without ZnCl2); details: for EC50: Homo sapiens
Protocol: as §1, §2, §3

[7] = Spectrophotometric UV-Vis titration and Job's plot of binding to divalent cations; assay type: physicochemical; details: combined concentration 200 μM in methanol; absorbance 475/390/375 nm
Protocol: UV-visible (UV-Vis) titrations were carried out essentially as described previously ([65], [66]). Aliquots of metal divalent cations (concentrated stocks were made initially in water and then diluted in methanol) were added to a fixed concentration of 50 μM 8-HNT compound in methanol. After each aliquot addition, the incubation mixture was left to stabilize for 5 min at 25°C prior to scanning. Wavelength scanning was carried out at between 260 and 510 nm by using a UV-2401 PC UV-Vis spectrophotometer (Shimadzu). For Job's plot analyses ([66]), the combined concentration of 8-HNT and cation was fixed at 200 μM, and only the molar ratio of cation versus 8-HNT compound varied. Changes of the absorption at 475, 390, and 375 nm were indicative of cation complex formation with compounds 1 to 3, respectively. Specific absorbance at these wavelengths was determined and plotted against the molar ratio of compound to cation to determine complex stoichiometry ([66]).

[8] = Cell-free fluorescence-based (FluoZin-3 salt) zinc binding assay; details: compounds and DFMO 1 to 100 μM; TPEN 10 μM
Protocol: ZnCl2 (5 μM) was incubated with various concentrations of our three 8-HNT compounds followed by the addition of 125 nM FluoZin-3 salt dye. Reaction mixtures were preincubated for 20 min at RT and then aliquoted into a black 96-well plate. Fluorescence was then measured with a Pherastar spectrophotometer (excitation at 485 nm and emission at 520 nm). Calculations were carried out in Excel.

[9] = system: L. donovani; details: cited from earlier work
[10] = system: L. donovani promastigotes; experiment: Intracellular Zn2+ measurement with FluoZin-3 in L. donovani; assay type: cell-based, Leishmania donovani; details: 8-HNT compounds 5 μM, TPEN 8 μM
Protocol: (§4) L. donovani promastigotes were grown to 2 × 10^7 cells ml^−1 and harvested by centrifugation (10 min at 1,600 × g). T. brucei bloodstream forms were grown to 2 × 10^6 cells ml^−1 and harvested by centrifugation (5 min at 800 × g). Parasites were washed with PBS and resuspended to a final concentration of 2.5 × 10^7 parasites ml^−1 in fresh PBS. Cells were incubated with FluoZin-3 (final concentration, 5 μM), pluronic acid (final concentration, 5 μM), and 14 mM glucose (T. brucei only). Parasites were incubated for 60 min at room temperature (RT), washed three times with PBS, and then resuspended in PBS (with 14 mM glucose for T. brucei only) before being aliquoted into a black, clear-bottomed 96-well plate (final concentration of 2.5 × 10^7 cells ml^−1). 8-HNT or control compounds were added directly to cells, and fluorescence was measured immediately by using a Pherastar fluorescence spectrophotometer (excitation at 485 nm and emission at 520 nm). Calculations were performed in Excel. […] Parasites were confirmed to be viable by microscopy after the completion of the experiment.

[11] = system: T. brucei bloodstream forms; experiment: Intracellular Zn2+ measurement with FluoZin-3 in T. brucei; assay type: cell-based, Trypanosoma brucei; details: 8-HNT compounds 5 μM, TPEN 8 μM
Protocol: as §4

[12] = system: T. brucei; parameters: method as in PMID 11849643; details: cited from earlier work
[13] = system: L. major; parameters: method as in PMID 7768775; details: cited from earlier work
[14] = read-out: EC50 values, WT, promastigotes, absence of cation, FeCl2 experiment
[15] = read-out: EC50 values, WT, promastigotes, absence of cation, ZnCl2 experiment
[16] = read-out: L. donovani pro EC50, promastigotes (Fig. 1)
[17] = Trypanosoma brucei, read-out: Mean EC50 ± SD, Plus cation, plus CaCl2 (3 mM)
[18] = Trypanosoma brucei, read-out: Mean EC50 ± SD, Plus cation, plus CuCl2 (5 μM)
[19] = Trypanosoma brucei, read-out: Mean EC50 ± SD, Plus cation, plus MgCl2 (1 mM)
[20] = Trypanosoma brucei, read-out: Mean EC50 ± SD, Plus cation, plus MnCl2 (10 μM)
[21] = Trypanosoma brucei, read-out: Mean EC50 ± SD, WT, absence of cation, CaCl2 experiment
[22] = Trypanosoma brucei, read-out: Mean EC50 ± SD, WT, absence of cation, CuCl2 experiment
[23] = Trypanosoma brucei, read-out: Mean EC50 ± SD, WT, absence of cation, FeCl2 experiment
[24] = Trypanosoma brucei, read-out: Mean EC50 ± SD, WT, absence of cation, MgCl2 experiment
[25] = Trypanosoma brucei, read-out: Mean EC50 ± SD, WT, absence of cation, MnCl2 experiment
[26] = Trypanosoma brucei, read-out: Mean EC50 ± SD, WT, absence of cation, ZnCl2 experiment
[27] = Trypanosoma brucei, read-out: T. brucei bsf EC50, bloodstream form (Fig. 1)
[28] = read-out: EC50 against bloodstream-form T. brucei, substance alone (Fig. S2), mean ± SEM

With `[Ca+2].[Cl-].[Cl-]` [CaCl2] the “Maximum concentration of metal salt having a minimal impact on cell growth” value (“Maximum concentration” below) ([1]; T. brucei) was 3000 µM.

With `COc1ccccc1-c1nc(-c2nc(C)n[nH]2)c(O)c2ncccc12` [Compound 2] the “Concentration in which promastigotes were unable to grow” value ([2]; after 270 days in culture, start 1 μM) was no less than 10 µM, the “Development of resistance in L. donovani promastigotes” value ([2]; stepwise increasing concentrations over a 9-month period) was “could not develop any resistance” and the EC50 [3] was 600 nM. For the same compound, the EC50 [4] was greater than 50000 nM, the EC50 [5, 14] was 100 ± 10 nM and the EC50 [5, 15] was 200 ± 40 nM. For the same compound, the EC50 [5, 16] was 180 nM, the Shift ([5]; FeCl2 (100 μM) vs WT) was 6.8 fold and the Shift ([5]; ZnCl2 (100 μM) vs WT) was 265.7 fold. For the same compound, the “Shift of EC50 for HepG2 cells by ZnCl2” value ([6]; 100 μM ZnCl2) was 7 fold, the EC50 ([6]; HepG2, read-out: EC50 for HepG2 cells, absence of exogenous ZnCl2) was 47800 ± 3600 nM and the EC50 ([6]; HepG2, read-out: HepG2 EC50) was 15900 nM. The “Shift (fold)” value ([1]; CaCl2 (3 mM) vs WT) was 1.0 fold, the “Shift (fold)” value ([1]; CuCl2 (5 μM) vs WT) was 0.9 fold and the “Shift (fold)” value ([1]; FeCl2 (10 μM) vs WT) was 2.4 fold. The “Shift (fold)” value ([1]; MgCl2 (1 mM) vs WT) was 1.1 fold, the “Shift (fold)” value ([1]; MnCl2 (10 μM) vs WT) was 0.8 fold and the EC50 [1, 17] was 1300 ± 60 nM. For the same compound, the EC50 [1, 18] was 1300 ± 60 nM, the EC50 [1, 19] was 900 ± 20 nM and the EC50 [1, 20] was 1200 ± 50 nM. It also gave an EC50 [1, 21] of 1200 ± 40 nM, an EC50 [1, 22] of 1400 ± 70 nM and an EC50 [1, 23] of 700 ± 60 nM. It also gave an EC50 [1, 24] of 800 ± 50 nM, an EC50 [1, 25] of 1400 ± 90 nM and an EC50 [1, 26] of 800 ± 50 nM. The EC50 [1, 27] was 790 nM, the “Shift (fold)” value ([1]; ZnCl2 (200 μM) vs WT) was 19.7 fold and the “Job's plot intercept, molar fraction (compound to Zn^2+)” value [7] was 0.31.

For `CC(NC(=O)c1ncc2cccnc2c1O)c1ccc(F)cc1` (stereo not drawn) [Compound 3], the EC50 [3] was 200 nM, the EC50 [4] was greater than 16000 nM and the EC50 [5, 14] was 100 ± 4 nM. For the same compound, the EC50 [5, 15] was 200 ± 10 nM, the EC50 [5, 16] was 220 nM and the Shift ([5]; FeCl2 (100 μM) vs WT) was 1.9 fold. The Shift ([5]; ZnCl2 (100 μM) vs WT) was 120.1 fold, the EC50 ([6]; HepG2, read-out: HepG2 EC50) was 16100 nM and the “Shift (fold)” value ([1]; CaCl2 (3 mM) vs WT) was 0.9 fold. The “Shift (fold)” value ([1]; CuCl2 (5 μM) vs WT) was 1.1 fold, the “Shift (fold)” value ([1]; FeCl2 (10 μM) vs WT) was 3.7 fold and the “Shift (fold)” value ([1]; MgCl2 (1 mM) vs WT) was 0.9 fold. For the same compound, the “Shift (fold)” value ([1]; MnCl2 (10 μM) vs WT) was 1.3 fold, the EC50 [1, 17] was 700 ± 40 nM and the EC50 [1, 18] was 800 ± 60 nM. The EC50 [1, 19] was 700 ± 50 nM, the EC50 [1, 20] was 1010 ± 40 nM and the EC50 [1, 21] was 800 ± 100 nM. The EC50 [1, 22] was 800 ± 50 nM, the EC50 [1, 23] was 900 ± 30 nM and the EC50 [1, 24] was 800 ± 50 nM. The EC50 [1, 25] was 800 ± 50 nM, the EC50 [1, 26] was 500 ± 30 nM and the EC50 [1, 27] was 520 nM. The “Shift (fold)” value ([1]; ZnCl2 (200 μM) vs WT) was 12.0 fold and the “Job's plot intercept, molar fraction (compound to Zn^2+)” value [7] was 0.35.

In the case of `[Cl][Cu][Cl]` [CuCl2], the “Maximum concentration” value ([1]; T. brucei) is reported as 5 µM.

In the case of `NCCCC(N)(C(=O)O)C(F)F` (stereo not drawn) [DFMO, difluoromethylornithine, reference compound], the “Cell-free FluoZin-3 fluorescence (competition for Zn^2+ binding)” value [8] is reported as “did not affect the fluorescence levels”, the “Effect of exogenous divalent cations, including Fe^2+ and Zn^2+, on potency against T. brucei” value ([1]; control) is reported as “failed to alter the potency” and the EC50 [1, 28] is reported as 39500 ± 900 nM.

For `[Cl][Fe][Cl]` [FeCl2], the “Tolerated concentration of exogenous metal salt” value (“Tolerated concentration” for short) [5] was 100 µM, the “Maximum concentration” value [1] was 10 µM and the EC50 [1, 28] was 16800 ± 1400 nM.

For `[Cl-].[Cl-].[Mg+2]` [MgCl2], the “Maximum concentration” value ([1]; T. brucei) was 1000 µM.

With `[Cl][Mn][Cl]` [MnCl2] the “Maximum concentration” value ([1]; T. brucei) was 10 µM.

For `c1ccc(CN(CCN(Cc2ccccn2)Cc2ccccn2)Cc2ccccn2)nc1` [TPEN, N,N,N′,N′-tetrakis(2-pyridylmethyl)ethane-1,2-diamine], the “Inhibition of L. donovani in vitro” value [9] is listed as “inhibit”, the “Intracellular zinc level (FluoZin-3 fluorescence)” value [10] is listed as “decrease in fluorescence” and the “Intracellular zinc level (FluoZin-3 fluorescence)” value [11] is listed as “decrease in fluorescence”. For the same compound, the “Cell-free FluoZin-3 fluorescence (competition for Zn^2+ binding)” value [8] was “reduction in the level of fluorescence” and the EC50 ([1]; Trypanosoma brucei, read-out: EC50 against bloodstream-form T. brucei, substance alone (Fig. S2), mean ± SEM) was 4100 ± 900 nM.

In the case of `[Cl-].[Cl-].[Zn+2]` [ZnCl2], the “Tolerated concentration” value [5] is reported as 100 µM, the “Tolerated concentration” value ([6]; HepG2 cells) is reported as 100 µM and the “Maximum concentration” value [1] is reported as 200 µM. For the same compound, the EC50 [1, 28] was 619000 ± 12600 nM.

In the case of `CC(=O)N(O)CCCCCNC(=O)CCC(=O)N(O)CCCCCNC(=O)CCC(=O)N(O)CCCCCN` [deferoxamine], the “Growth inhibition of L. donovani in vitro” value [9] is given as “inhibit the growth”, the “Growth inhibition of T. brucei in vitro” value [12] is given as “inhibit the growth” and the “Growth inhibition of L. major in vitro” value [13] is given as “inhibits the growth”.
